From ChEMBL document CHEMBL1151674, “Oscillapeptin G, a tyrosinase inhibitor from toxic Oscillatoria agardhii” (J Nat Prod, 1996)

Biological target: T1, Tyrosinase (Homo sapiens) (UniProt P14679)
T1 sequence (whole entry): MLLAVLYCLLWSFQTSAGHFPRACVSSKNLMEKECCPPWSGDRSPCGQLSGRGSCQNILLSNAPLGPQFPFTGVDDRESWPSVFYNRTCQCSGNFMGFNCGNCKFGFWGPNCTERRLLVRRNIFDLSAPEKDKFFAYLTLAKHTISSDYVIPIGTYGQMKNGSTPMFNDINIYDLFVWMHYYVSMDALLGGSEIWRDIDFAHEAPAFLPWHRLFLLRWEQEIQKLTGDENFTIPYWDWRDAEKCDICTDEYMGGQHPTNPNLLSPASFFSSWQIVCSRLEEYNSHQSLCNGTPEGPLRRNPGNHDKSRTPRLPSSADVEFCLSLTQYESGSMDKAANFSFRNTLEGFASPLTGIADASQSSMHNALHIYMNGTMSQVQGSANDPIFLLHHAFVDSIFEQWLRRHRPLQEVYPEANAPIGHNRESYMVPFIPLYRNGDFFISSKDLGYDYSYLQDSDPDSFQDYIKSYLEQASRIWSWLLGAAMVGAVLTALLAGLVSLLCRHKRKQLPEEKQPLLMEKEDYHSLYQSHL
Experiment: Inhibition of tyrosinase-mediated formation of melanin from tyrosine at 100 uM relative to control

SMILES: CC[C@H](C)[C@@H]1NC(=O)[C@H](Cc2ccc(O)cc2)N(C)C(=O)[C@H]([C@H](C)O)N2C(=O)[C@H](CC[C@H]2O)NC(=O)[C@H](CC(C)C)NC(=O)[C@@H](NC(=O)[C@H](CCC(N)=O)NC(=O)[C@H](CCc2ccc(O)cc2)NC(=O)[C@H](O)CO)[C@@H](C)OC1=O
- inhibition: 55%
